Source: the Kinase Knowledgebase extract (Sharma et al. 2016)

Each molecule was assayed against PIK3CA (human) (UniProt P42336) (assay: Enzyme Assay).
Sequence of PIK3CA (human) (P42336 whole entry, looked up): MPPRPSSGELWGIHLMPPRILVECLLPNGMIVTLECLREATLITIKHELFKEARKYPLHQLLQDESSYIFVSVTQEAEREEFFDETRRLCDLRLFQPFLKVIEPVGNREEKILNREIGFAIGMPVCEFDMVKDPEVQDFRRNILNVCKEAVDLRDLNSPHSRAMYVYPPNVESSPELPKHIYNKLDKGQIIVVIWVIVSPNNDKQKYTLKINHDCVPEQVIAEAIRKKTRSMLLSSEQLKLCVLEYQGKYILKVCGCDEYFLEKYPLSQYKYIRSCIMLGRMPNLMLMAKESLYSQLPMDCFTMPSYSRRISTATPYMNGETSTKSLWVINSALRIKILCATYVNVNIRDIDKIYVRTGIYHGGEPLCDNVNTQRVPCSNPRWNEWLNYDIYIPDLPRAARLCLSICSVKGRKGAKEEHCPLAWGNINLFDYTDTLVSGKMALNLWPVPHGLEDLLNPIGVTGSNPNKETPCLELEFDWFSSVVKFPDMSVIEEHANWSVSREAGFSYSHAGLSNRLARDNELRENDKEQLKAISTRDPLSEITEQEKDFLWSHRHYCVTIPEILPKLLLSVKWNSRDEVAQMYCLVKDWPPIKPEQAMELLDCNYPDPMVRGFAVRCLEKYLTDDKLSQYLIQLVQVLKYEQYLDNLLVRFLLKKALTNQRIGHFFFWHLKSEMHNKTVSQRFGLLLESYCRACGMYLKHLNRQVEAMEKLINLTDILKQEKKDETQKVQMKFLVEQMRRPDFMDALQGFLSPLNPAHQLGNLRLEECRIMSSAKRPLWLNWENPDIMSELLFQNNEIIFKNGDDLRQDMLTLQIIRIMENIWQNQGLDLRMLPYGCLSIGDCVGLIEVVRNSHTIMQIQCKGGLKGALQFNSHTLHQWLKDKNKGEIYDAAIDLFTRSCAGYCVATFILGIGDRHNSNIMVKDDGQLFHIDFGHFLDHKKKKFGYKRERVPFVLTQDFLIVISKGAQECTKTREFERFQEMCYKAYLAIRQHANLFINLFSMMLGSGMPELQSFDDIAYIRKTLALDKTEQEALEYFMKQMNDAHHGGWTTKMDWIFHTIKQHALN
`CNC(=O)Nc1ccc2c(c1)O/C(=C\c1cn(CCCN(C)C)c3ccc(OC)cc13)C2=O` gave an IC50 of 10 µM.
`CN(C)Cc1ccc(-c2ccc(-c3c(/C=C4\Oc5cc(O)cc(O)c5C4=O)c4ccccc4n3C)cc2)cc1` gave an IC50 of 1.23 µM.
Work on `COc1ccc2c(c1)c(C=C1Oc3cccc(O)c3C1=O)c(C)n2CCN1CCOCC1` yielded an IC50 of 0.65 µM.
For `COc1ccc2c(c1)c(C=C1Oc3c(ccc(O)c3O)C1=O)c(C)n2CCCCN1CCN(CCO)CC1`, the IC50 was 0.204 µM.
With `COc1ccc2[nH]cc(/C=C3\Oc4c(OC)cccc4C3=O)c2c1` the IC50 was 9.86 µM.
`COc1ccc2c(c1)c(C=C1Oc3cccc(O)c3C1=O)c(C)n2CCN1CCN(C)CC1` was tested, and the IC50 was 0.488 µM.
`Cc1ccc2c(c1)C(=O)/C(=C/c1c(-c3ccc4ccccc4c3)[nH]c3ccccc13)S2` gave an IC50 of 12 µM.
`COc1ccc2[nH]c(CCn3ccnc3)c(/C=C3\Oc4cc(O)cc(O)c4C3=O)c2c1` showed an IC50 of 0.0095 µM.
With `COc1ccc2c(c1)c(C=C1Oc3c(ccc(O)c3O)C1=O)c(C)n2CCCCN1CCN(C)CC1` the IC50 was 0.337 µM.
With `CCc1cc(OC)cc2c(/C=C3\Oc4cc(O)cc(O)c4C3=O)cn(CCCC#N)c12` the IC50 was 0.0625 µM.
Work on `COc1ccc2c(c1)c(C=C1Oc3c(ccc(O)c3O)C1=O)c(C)n2CCCCN1CCOCC1` yielded an IC50 of 0.231 µM.
In the case of `COc1ccc2[nH]cc(/C=C3\Oc4cc(O)cc(-c5ccccc5)c4C3=O)c2c1`, the IC50 is reported as 0.122 µM.
Work on `CCc1cc(O)cc2c1C(=O)/C(=C/c1c[nH]c3ccc(OC)cc13)O2` yielded an IC50 of 0.133 µM.
`COc1cc(/C=C/CC2CCNCC2)c2[nH]cc(/C=C3\Oc4cc(O)ccc4C3=O)c2c1` showed an IC50 of 0.048 µM.
With `Cc1ccc2c(c1)C(=O)/C(=C/c1c(C)[nH]c3ccc([N+](=O)[O-])cc13)S2` the IC50 was 9.19 µM.
With `COC(=O)Nc1ccc2c(c1)C(=O)/C(=C/c1cn(CCN3CCN(C)CC3)c3ccc(OC)cc13)O2` the IC50 was 0.63 µM.
For `O=C1C(=Cc2c(-c3ccccc3)n(CCN3CCCCC3)c3ccccc23)Oc2cc(O)cc(O)c21`, the IC50 was 2.28 µM.
With `COc1ccc2[nH]cc(/C=C3\Oc4cc(O)cc(Br)c4C3=O)c2c1` the IC50 was 0.12 µM.
Molecule `Cn1cc(/C=C2/Oc3cc(O)cc(O)c3C2=O)c2c(-c3ccccc3)cccc21.Cn1cc(/C=C2\Oc3cc(O)cc(O)c3C2=O)c2c(-c3ccccc3)cccc21` has an IC50 of 0.266 µM.
`COc1ccc2c(c1)c(C=C1Oc3cccc(O)c3C1=O)c(C)n2CCN1CCN(CCO)CC1` was tested, and the IC50 was 0.478 µM.
Molecule `Cn1cc(/C=C2\Oc3cc(O)cc(O)c3C2=O)c2c(Br)cccc21` has an IC50 of 3.31 µM.
`Cn1c(-c2ccc(-c3ccc(CN)cc3)cc2)c(/C=C2\Oc3cc(O)cc(O)c3C2=O)c2ccccc21` was tested, and the IC50 was 2.86 µM.

The molecules below were run against PIK3CG (human) (UniProt P48736) (assay: Inhibition of PIK3CG Kinase Activity).
Sequence of PIK3CG (human) (P48736 whole entry, looked up): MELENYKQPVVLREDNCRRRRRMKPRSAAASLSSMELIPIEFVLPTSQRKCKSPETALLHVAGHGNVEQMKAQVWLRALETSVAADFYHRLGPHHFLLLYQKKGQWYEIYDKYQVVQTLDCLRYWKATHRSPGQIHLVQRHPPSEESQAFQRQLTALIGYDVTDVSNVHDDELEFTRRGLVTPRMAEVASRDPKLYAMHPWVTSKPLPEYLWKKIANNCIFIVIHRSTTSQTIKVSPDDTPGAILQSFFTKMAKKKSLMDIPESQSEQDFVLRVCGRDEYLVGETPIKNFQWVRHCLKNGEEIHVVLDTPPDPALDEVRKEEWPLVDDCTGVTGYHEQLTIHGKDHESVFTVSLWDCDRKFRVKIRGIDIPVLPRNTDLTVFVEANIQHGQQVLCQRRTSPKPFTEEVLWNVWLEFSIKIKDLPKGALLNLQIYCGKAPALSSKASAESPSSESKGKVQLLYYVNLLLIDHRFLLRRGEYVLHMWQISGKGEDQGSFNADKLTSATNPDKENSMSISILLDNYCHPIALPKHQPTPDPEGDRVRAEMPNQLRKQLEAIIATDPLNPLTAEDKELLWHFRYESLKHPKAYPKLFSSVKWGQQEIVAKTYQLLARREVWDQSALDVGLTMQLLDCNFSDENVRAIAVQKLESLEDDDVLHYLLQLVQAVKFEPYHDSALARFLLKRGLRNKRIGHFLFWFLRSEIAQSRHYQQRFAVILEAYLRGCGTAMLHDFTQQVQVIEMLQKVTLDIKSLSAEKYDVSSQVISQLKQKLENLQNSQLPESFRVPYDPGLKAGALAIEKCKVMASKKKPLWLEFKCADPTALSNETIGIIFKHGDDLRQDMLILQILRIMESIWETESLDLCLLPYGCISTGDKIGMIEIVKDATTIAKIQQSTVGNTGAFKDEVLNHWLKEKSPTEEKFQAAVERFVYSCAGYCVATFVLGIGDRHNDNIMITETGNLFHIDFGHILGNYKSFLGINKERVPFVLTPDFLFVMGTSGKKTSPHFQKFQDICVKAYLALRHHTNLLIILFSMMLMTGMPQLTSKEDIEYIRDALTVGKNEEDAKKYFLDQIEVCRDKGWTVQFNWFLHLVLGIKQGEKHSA
`Cc1cccc2c1c(/C=C1\Oc3cc(O)cc(O)c3C1=O)c(-c1ccccn1)n2C` showed an IC50 of 11 µM.
Work on `CN(C)Cc1ccc(-c2ccc(-c3c(/C=C4\Oc5cc(O)cc(O)c5C4=O)c4ccccc4n3C)cc2)cc1` yielded an IC50 of 2.31 µM.
`O=C1C(=Cc2c(-c3ccccc3)n(Cc3cccnc3)c3ccccc23)Oc2cc(O)cc(O)c21` showed an IC50 of 11 µM.
Molecule `COc1ccc2c(c1)c(C=C1Oc3cccc(O)c3C1=O)c(C)n2CCN1CCOCC1` has an IC50 of 4.13 µM.
`COc1ccc2c(c1)c(C=C1Oc3c(ccc(O)c3O)C1=O)c(C)n2CCCCN1CCN(CCO)CC1` was tested, and the IC50 was 3.17 µM.
`COc1ccc2c(c1)c(C=C1Oc3cccc(O)c3C1=O)c(C)n2CCN1CCN(C)CC1` was tested, and the IC50 was 4.5 µM.
For `CN(c1ccccc1)c1cccc2c1c(/C=C1\Oc3cc(O)cc(O)c3C1=O)cn2C`, the IC50 was 5 µM.
Work on `O=C1C(=Cc2c[nH]c3cc(Cl)ccc23)Oc2cc(O)cc(O)c21` yielded an IC50 of 10 µM.
`O=C1C(=Cc2c(Br)[nH]c3ccccc23)Oc2c1ccc(O)c2O` was tested, and the IC50 was 5 µM.
For `COc1ccc2[nH]c(CCn3ccnc3)c(/C=C3\Oc4cc(O)cc(O)c4C3=O)c2c1`, the IC50 was 0.0815 µM.
Molecule `COc1ccc2c(c1)c(C=C1Oc3c(ccc(O)c3O)C1=O)c(C)n2CCCCN1CCN(C)CC1` has an IC50 of 4.15 µM.
`COc1ccc2c(c1)c(/C=C1\Oc3ccc(Br)cc3C1=O)cn2CCCN(C)C` gave an IC50 of 5 µM.
`COc1ccc2c(c1)c(/C=C1\Oc3c(ccc(O)c3C)C1=O)c(C)n2CCCN(C)C` was tested, and the IC50 was 5 µM.
`COc1ccc2c(c1)c(C=C1Oc3c(ccc(O)c3O)C1=O)c(C)n2CCCCN1CCOCC1` was tested, and the IC50 was 0.954 µM.
For `COc1cc(/C=C/CC2CCNCC2)c2[nH]cc(/C=C3\Oc4cc(O)ccc4C3=O)c2c1`, the IC50 was 1.89 µM.
`COC(=O)Nc1ccc2c(c1)C(=O)/C(=C/c1cn(CCN3CCN(C)CC3)c3ccc(OC)cc13)O2` showed an IC50 of 7.36 µM.
Molecule `O=C1C(=Cc2c(-c3ccccc3)n(CCN3CCCCC3)c3ccccc23)Oc2cc(O)cc(O)c21` has an IC50 of 4.88 µM.
Molecule `COc1cc(-c2ccncc2)c2c(c1)c(/C=C1\Oc3cc(O)ccc3C1=O)cn2CCCC#N` has an IC50 of 5 µM.
Molecule `COc1ccc2[nH]cc(/C=C3\Oc4cc(S(=O)(=O)OC(F)(F)F)ccc4C3=O)c2c1` has an IC50 of 9.35 µM.
`O=C1/C(=C/c2c[nH]c3ccc(Cl)cc23)Oc2c1ccc(O)c2O` gave an IC50 of 5 µM.
Work on `O=C1C(=Cc2c(-c3ccccc3)n(Cc3ccncc3)c3ccccc23)Oc2cc(O)cc(O)c21` yielded an IC50 of 11 µM.
`COc1ccc2c(c1)c(C=C1Oc3cccc(O)c3C1=O)c(C)n2CCN1CCN(CCO)CC1` showed an IC50 of 3.97 µM.
Work on `Cn1cc(C=C2Oc3cc(O)cc(O)c3C2=O)c2c(Cl)cccc21` yielded an IC50 of 10 µM.
With `Cn1cc(/C=C2\Oc3cc(O)cc(O)c3C2=O)c2c(Br)cccc21` the IC50 was 1.94 µM.
`Cn1c(-c2ccc(-c3ccc(CN)cc3)cc2)c(/C=C2\Oc3cc(O)cc(O)c3C2=O)c2ccccc21` gave an IC50 of 9.5 µM.
Work on `COc1ccc(-c2cccc3c2c(/C=C2\Oc4cc(O)cc(O)c4C2=O)cn3C)cn1` yielded an IC50 of 5 µM.
